Measured values taken from the supplement of paper PMC12592484.

Key:
Assay in all cases: drug sensitivity score (DSS2, normalised partial AUC of dose-response, 72 h CellTiter-Glo viability) (DSS (dimensionless)); higher = more sensitive (stronger growth inhibition / cytotoxicity); extreme values may be limits of the assay
PF179T = system: PF179T
How it was run: (§1)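 In BREEZE, the drug sensitivity score was derived as a partial area under a fitted logistic dose–response curve over the log of that curve's upper asymptote; a higher score marks a more sensitive response. The input came from low-passage primary prostate cancer-associated fibroblasts, PF179T, WPMY-1, LNCaP and 22Rv1 cells, each seeded into 384-well plates with compounds pre-dispensed at five doses spanning a 10,000-fold range. CellTiter-Glo 2.0 luminescence after 72 h gave viability, which was normalized to vehicle and positive-control wells.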

CAF#7 = system: CAF#7 (primary prostate cancer-associated fibroblasts of myCAF-like type)
How it was run: as §1

WPMY-1 = system: WPMY-1
How it was run: as §1

CAF#1 = system: CAF#1 (primary prostate cancer-associated fibroblasts of myCAF-like type)
How it was run: as §1

CAF#4 = system: CAF#4 (primary prostate cancer-associated fibroblasts of iCAF-like type)
How it was run: as §1

CAF#6 = system: CAF#6 (primary prostate cancer-associated fibroblasts of iCAF-like type)
How it was run: as §1

LNCAP = system: LNCAP
How it was run: as §1

22Rv1 = system: 22Rv1
How it was run: as §1

CAF#3 = system: CAF#3 (primary prostate cancer-associated fibroblasts of myCAF-like type)
How it was run: as §1

CAF#2 = system: CAF#2 (primary prostate cancer-associated fibroblasts of iCAF-like type)
How it was run: as §1

CAF#5 = system: CAF#5 (primary prostate cancer-associated fibroblasts of myCAF-like type)
How it was run: as §1

SMILES | drug sensitivity score (PF179T) | drug sensitivity score (CAF#7) | drug sensitivity score (WPMY-1) | drug sensitivity score (CAF#1) | drug sensitivity score (CAF#4) | drug sensitivity score (CAF#6) | drug sensitivity score (LNCAP) | drug sensitivity score (22Rv1) | drug sensitivity score (CAF#3) | drug sensitivity score (CAF#2) | drug sensitivity score (CAF#5)
CC(C)n1nc(-c2ccc3oc(N)nc3c2)c2c(N)ncnc21 [Sapanisertib] (tested concentration range 0.1-1000 nM) | 18 | 13.2 | 13.7 | 20.2 | 17.8 | 14.6 | 20 | 21.2 | 14.3 | 14 | 19.1
O=C(O)C1(C(=O)O)CCC1.[NH2-].[NH2-].[Pt+2] [Carboplatin] (tested concentration range 10-100000 nM) | 6 | 0.4 | 7.7 | 4.8 | 5.5 | 1.6 | 5.5 | 6.7 | 2.8 | 8.3 | 5.5
CN(CC(=O)N(Cc1ccc(C2CCCCC2)cc1)c1ccc(C(=O)O)cc1)S(=O)(=O)c1c(F)c(F)c(F)c(F)c1F [SH-4-54] (tested concentration range 2.5-25000 nM) | 5.5 | 4.6 | 6.5 | 6.3 | 5.6 | 7.2 | 6 | 8.4 | 5.4 | 6.3 | 6
COc1cc(Nc2ncc(F)c(Nc3ccc4c(n3)NC(=O)C(C)(C)O4)n2)cc(OC)c1OC [Tamatinib] (tested concentration range 1-10000 nM) | 8 | 3.2 | 6 | 10.9 | 5.8 | 0.8 | 0.8 | 0 | 1.7 | 9.7 | 6.4
CC#CC(=O)N1CCC[C@H]1c1nc(-c2ccc(C(=O)Nc3ccccn3)cc2)c2c(N)nccn12 [Acalabrutinib] (tested concentration range 0.1-1000 nM) | 0 | 0 | 0 | 0.1 | 0 | 0 | 0 | 0 | 0 | 0.4 | 0.8
Cc1c2oc3c(C)ccc(C(=O)N[C@@H]4C(=O)N[C@H](C(C)C)C(=O)N5CCC[C@H]5C(=O)N(C)CC(=O)N(C)[C@@H](C(C)C)C(=O)O[C@@H]4C)c3nc-2c(C(=O)N[C@@H]2C(=O)N[C@H](C(C)C)C(=O)N3CCC[C@H]3C(=O)N(C)CC(=O)N(C)[C@@H](C(C)C)C(=O)O[C@@H]2C)c(N)c1=O [Dactinomycin] (tested concentration range 0.1-1000 nM) | 17.2 | 22.6 | 26.5 | 24.7 | 17.2 | 19.8 | 39.3 | 31.8 | 23 | 23.2 | 21.1
CC(C)(C)NC(=O)[C@H]1CC[C@H]2[C@@H]3CC[C@H]4NC(=O)C=C[C@]4(C)[C@H]3CC[C@]12C [Finasteride] (tested concentration range 1-10000 nM) | 0 | 0 | 0 | 0 | 0 | 0 | 2.8 | 0 | 0.5 | 0 | 0
COc1cc(N2CCN(C)CC2)ccc1Nc1nccc(-c2cn(C)c3cnccc23)n1 [AZ191] (tested concentration range 1-10000 nM) | 2.7 | 2.1 | 6.8 | 6 | 1.9 | 2.3 | 3.5 | 6.4 | 7.1 | 5.7 | 4.6
CC(C)c1cc(-c2n[nH]c(=O)n2-c2ccc3c(ccn3C)c2)c(O)cc1O [Ganetespib] (tested concentration range 0.1-1000 nM) | 20.9 | 15.9 | 24.3 | 24.1 | 18.3 | 14.3 | 21.9 | 23.9 | 16.9 | 20.3 | 22.3
CN1CCN(c2ccc(C(=O)Nc3n[nH]c4ccc(Cc5cc(F)cc(F)c5)cc34)c(NC3CCOCC3)c2)CC1 [Entrectinib] (tested concentration range 0.1-1000 nM) | 1 | 2.1 | 0.9 | 1.3 | 0 | 0.7 | 1 | 1.1 | 2.1 | 1.9 | 0.8
N#CCNC(=O)c1ccc(-c2ccnc(Nc3ccc(N4CCOCC4)cc3)n2)cc1 [Momelotinib] (tested concentration range 1-10000 nM) | 2.3 | 3.1 | 6.1 | 3.9 | 2.8 | 2.8 | 5 | 0.9 | 4.4 | 4.6 | 4.1
Nc1cccc2c1C(=O)N(C1CCC(=O)NC1=O)C2=O (centres undefined) [Pomalidomide] (tested concentration range 1-10000 nM) | 0 | 0 | 0 | 0 | 0 | 0 | 0 | 0 | 0 | 0 | 0
Nc1nc(OCc2cc(Br)cs2)c2[nH]cnc2n1 [Lomeguatrib] (tested concentration range 1-10000 nM) | 0 | 0 | 0 | 0 | 0.1 | 0 | 0 | 0 | 0.1 | 1.4 | 0.2
CC1(C)CNc2cc(NC(=O)c3cccnc3NCc3ccncc3)ccc21 [Motesanib] (tested concentration range 1-10000 nM) | 0 | 3.7 | 0 | 1.4 | 0.7 | 2.1 | 5.1 | 0 | 5.9 | 2.7 | 2.4
COc1cc(OC2CCN(C)CC2)ccc1Nc1ncc2c(n1)n(C1CCCC1)c(=O)n2C [AZ 3146] (tested concentration range 1-10000 nM) | 2.3 | 2.8 | 4.8 | 1.8 | 0.8 | 1.6 | 4.6 | 7.5 | 3.1 | 4.3 | 0.7
Cc1ccc(C(=O)Nc2cccc(C(F)(F)F)c2)cc1Nc1nc(-c2cccnc2)nc2c1cnn2C [NVP-BHG712] (tested concentration range 1-10000 nM) | 0.6 | 0 | 9 | 0 | 1.6 | 0 | 9.6 | 5 | 0 | 3.2 | 1
NC(=S)N/N=C/c1ncccc1N [Triapine] (tested concentration range 1-10000 nM) | 2.2 | 0.8 | 4.9 | 0 | 0 | 1 | 3.2 | 4 | 0.6 | 3.3 | 1.3
Cc1c(-c2ccc(N3CCc4cccc(C(=O)Nc5nc6ccccc6s5)c4C3)nc2C(=O)O)cnn1CC12CC3CC(CC(C3)C1)C2 (tested concentration range 0.1-1000 nM) | 0 | 0.4 | 0 | 0 | 3.1 | 4.2 | 4.4 | 0 | 0 | 0 | 0
CC1(C)CCC(CN2CCN(c3ccc(C(=O)NS(=O)(=O)c4ccc(NCC5CCOCC5)c([N+](=O)[O-])c4)c(Oc4cnc5[nH]ccc5c4)c3)CC2)=C(c2ccc(Cl)cc2)C1 [Venetoclax] (tested concentration range 0.1-1000 nM) | 0 | 0 | 0 | 0 | 0 | 0 | 0 | 0 | 0 | 0 | 0
C[C@@H](Nc1cc(F)cc(F)c1)c1cc(C(=O)N(C)C)cc2c(=O)cc(N3CCOCC3)oc12 [AZD-8186] (tested concentration range 0.1-1000 nM) | 6.3 | 3.9 | 1 | 2.9 | 2.8 | 2.2 | 12.7 | 1 | 4.2 | 3.4 | 2.8
CNCc1ccc(-c2[nH]c3cc(F)cc4c3c2CCNC4=O)cc1 [Rucaparib] (tested concentration range 1-10000 nM) | 3.7 | 2.9 | 1.8 | 0.8 | 3.8 | 0.5 | 4.8 | 4.6 | 0 | 2.3 | 0
CCN(CC)CCNC(=O)c1c(C)[nH]c(/C=C2\C(=O)Nc3ccc(-c4csc(-c5ccccc5)n4)cc32)c1C [Amcasertib] (tested concentration range 1-10000 nM) | 0 | 0 | 0 | 7 | 7.1 | 0 | 3.5 | 6.8 | 0 | 2.3 | 6.6
Nc1nc(Cl)nc2c1ncn2[C@@H]1O[C@H](CO)[C@@H](O)[C@@H]1F [Clofarabine] (tested concentration range 1-10000 nM) | 10.6 | 9.3 | 16.9 | 6.5 | 4.6 | 6.1 | 18.5 | 13.9 | 5 | 10.6 | 7.3
CCCCCOC(=O)Nc1nc(=O)n([C@@H]2O[C@H](C)[C@@H](O)[C@H]2O)cc1F [Capecitabine] (tested concentration range 1-10000 nM) | 0 | 0 | 0 | 0 | 0 | 0 | 0 | 0 | 0 | 0 | 0
CC1(C)OCCn2c1nc1c(N3CCOCC3)nc(-c3cnc(N)nc3)nc12 [Paxalisib] (tested concentration range 1-10000 nM) | – | – | – | 16 | 13 | – | 13.5 | 18.1 | – | – | 18.3
